Tests used:
Test in all cases: Kinase profiling in a biochemical assay panel (mobility shift assays and ELISA), %-inhibition at 1 μM; selectivity entropy
[1] = target: panel of more than 300 wild-type and mutant kinases (313 kinase panel) (Homo sapiens, UniProt Q00535); conditions: kinase CDK5/p25; 1 μM compound
[2] = target: panel of more than 300 wild-type and mutant kinases (313 kinase panel) (Homo sapiens, UniProt P51812); conditions: kinase RSK2; 1 μM
[3] = target: panel of more than 300 wild-type and mutant kinases (313 kinase panel) (Homo sapiens, UniProt P30291)
panel of more than 300 wild-type and mutant kinases (313 kinase panel) (Homo sapiens, UniProt P30291), sequence (P30291 whole entry, change not shown): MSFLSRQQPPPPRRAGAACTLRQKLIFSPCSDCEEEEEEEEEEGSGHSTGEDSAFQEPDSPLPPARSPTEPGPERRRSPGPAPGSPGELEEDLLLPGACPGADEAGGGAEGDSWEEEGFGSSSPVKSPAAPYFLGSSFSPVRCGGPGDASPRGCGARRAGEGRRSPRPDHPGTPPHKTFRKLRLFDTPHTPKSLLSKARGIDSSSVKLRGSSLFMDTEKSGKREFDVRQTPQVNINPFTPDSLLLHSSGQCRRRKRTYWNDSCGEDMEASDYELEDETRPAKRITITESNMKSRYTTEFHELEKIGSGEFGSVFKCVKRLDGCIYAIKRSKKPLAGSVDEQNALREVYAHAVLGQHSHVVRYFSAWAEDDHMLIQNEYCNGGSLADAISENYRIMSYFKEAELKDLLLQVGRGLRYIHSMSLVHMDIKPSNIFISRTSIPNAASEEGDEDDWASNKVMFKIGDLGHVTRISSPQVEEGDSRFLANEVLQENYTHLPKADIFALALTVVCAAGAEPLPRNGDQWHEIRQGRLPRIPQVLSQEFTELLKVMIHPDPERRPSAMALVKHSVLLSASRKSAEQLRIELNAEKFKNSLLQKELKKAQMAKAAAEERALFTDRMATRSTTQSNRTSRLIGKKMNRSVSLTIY

[4] = target: panel of more than 300 wild-type and mutant kinases (313 kinase panel) (Homo sapiens, UniProt P23443)
[5] = target: panel of more than 300 wild-type and mutant kinases (313 kinase panel) (Homo sapiens, UniProt Q05397); conditions: kinase FAK; compound at 1 μM
[6] = target: panel of more than 300 wild-type and mutant kinases (313 kinase panel) (Homo sapiens, UniProt Q9P286)
panel of more than 300 wild-type and mutant kinases (313 kinase panel) (Homo sapiens, UniProt Q9P286), sequence (Q9P286 whole entry, change not shown): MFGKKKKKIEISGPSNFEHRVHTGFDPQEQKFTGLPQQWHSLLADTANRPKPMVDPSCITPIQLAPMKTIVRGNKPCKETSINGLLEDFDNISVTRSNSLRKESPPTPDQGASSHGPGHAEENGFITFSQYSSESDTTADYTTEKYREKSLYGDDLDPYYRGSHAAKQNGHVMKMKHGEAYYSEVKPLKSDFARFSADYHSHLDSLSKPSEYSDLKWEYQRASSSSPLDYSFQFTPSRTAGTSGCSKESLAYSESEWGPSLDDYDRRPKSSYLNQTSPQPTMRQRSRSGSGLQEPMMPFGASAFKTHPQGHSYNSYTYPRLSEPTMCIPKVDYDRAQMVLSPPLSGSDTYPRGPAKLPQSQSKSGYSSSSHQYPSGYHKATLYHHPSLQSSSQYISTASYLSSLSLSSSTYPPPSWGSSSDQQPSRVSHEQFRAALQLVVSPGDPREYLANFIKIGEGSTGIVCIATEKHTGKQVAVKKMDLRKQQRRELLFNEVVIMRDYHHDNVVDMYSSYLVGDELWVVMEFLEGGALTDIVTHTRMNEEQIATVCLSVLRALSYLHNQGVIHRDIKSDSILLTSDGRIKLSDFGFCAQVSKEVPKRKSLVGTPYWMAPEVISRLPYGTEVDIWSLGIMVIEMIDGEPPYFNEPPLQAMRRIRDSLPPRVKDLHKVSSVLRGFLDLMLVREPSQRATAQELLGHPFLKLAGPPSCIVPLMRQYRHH

[7] = target: panel of more than 300 wild-type and mutant kinases (313 kinase panel) (Homo sapiens, UniProt Q96SB4); conditions: kinase SRPK1; 1 μM
panel of more than 300 wild-type and mutant kinases (313 kinase panel) (Homo sapiens, UniProt Q96SB4), sequence (Q96SB4 whole entry, change not shown): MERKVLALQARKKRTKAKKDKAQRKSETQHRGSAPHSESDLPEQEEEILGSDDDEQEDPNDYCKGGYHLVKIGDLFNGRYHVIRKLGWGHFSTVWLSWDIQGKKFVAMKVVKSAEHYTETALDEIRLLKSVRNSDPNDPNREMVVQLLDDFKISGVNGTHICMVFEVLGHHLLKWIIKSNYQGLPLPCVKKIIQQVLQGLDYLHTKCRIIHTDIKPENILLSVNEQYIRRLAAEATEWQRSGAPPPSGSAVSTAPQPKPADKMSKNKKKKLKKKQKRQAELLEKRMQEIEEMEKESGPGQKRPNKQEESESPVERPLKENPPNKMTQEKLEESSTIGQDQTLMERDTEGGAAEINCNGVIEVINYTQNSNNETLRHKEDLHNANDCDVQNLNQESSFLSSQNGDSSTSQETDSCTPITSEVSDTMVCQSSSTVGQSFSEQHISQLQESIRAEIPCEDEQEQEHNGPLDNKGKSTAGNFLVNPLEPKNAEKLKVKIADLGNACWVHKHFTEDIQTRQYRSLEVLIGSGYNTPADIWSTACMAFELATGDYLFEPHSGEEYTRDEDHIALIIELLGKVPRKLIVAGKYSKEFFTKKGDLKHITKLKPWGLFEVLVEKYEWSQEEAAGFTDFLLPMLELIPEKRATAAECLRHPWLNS

[8] = target: panel of more than 300 wild-type and mutant kinases (313 kinase panel) (Homo sapiens, UniProt Q13555)
[9] = target: panel of more than 300 wild-type and mutant kinases (313 kinase panel) (Homo sapiens, UniProt P06213); conditions: kinase INSR; compound at 1 μM
panel of more than 300 wild-type and mutant kinases (313 kinase panel) (Homo sapiens, UniProt P06213), sequence (P06213 28-1382, stated change not applied): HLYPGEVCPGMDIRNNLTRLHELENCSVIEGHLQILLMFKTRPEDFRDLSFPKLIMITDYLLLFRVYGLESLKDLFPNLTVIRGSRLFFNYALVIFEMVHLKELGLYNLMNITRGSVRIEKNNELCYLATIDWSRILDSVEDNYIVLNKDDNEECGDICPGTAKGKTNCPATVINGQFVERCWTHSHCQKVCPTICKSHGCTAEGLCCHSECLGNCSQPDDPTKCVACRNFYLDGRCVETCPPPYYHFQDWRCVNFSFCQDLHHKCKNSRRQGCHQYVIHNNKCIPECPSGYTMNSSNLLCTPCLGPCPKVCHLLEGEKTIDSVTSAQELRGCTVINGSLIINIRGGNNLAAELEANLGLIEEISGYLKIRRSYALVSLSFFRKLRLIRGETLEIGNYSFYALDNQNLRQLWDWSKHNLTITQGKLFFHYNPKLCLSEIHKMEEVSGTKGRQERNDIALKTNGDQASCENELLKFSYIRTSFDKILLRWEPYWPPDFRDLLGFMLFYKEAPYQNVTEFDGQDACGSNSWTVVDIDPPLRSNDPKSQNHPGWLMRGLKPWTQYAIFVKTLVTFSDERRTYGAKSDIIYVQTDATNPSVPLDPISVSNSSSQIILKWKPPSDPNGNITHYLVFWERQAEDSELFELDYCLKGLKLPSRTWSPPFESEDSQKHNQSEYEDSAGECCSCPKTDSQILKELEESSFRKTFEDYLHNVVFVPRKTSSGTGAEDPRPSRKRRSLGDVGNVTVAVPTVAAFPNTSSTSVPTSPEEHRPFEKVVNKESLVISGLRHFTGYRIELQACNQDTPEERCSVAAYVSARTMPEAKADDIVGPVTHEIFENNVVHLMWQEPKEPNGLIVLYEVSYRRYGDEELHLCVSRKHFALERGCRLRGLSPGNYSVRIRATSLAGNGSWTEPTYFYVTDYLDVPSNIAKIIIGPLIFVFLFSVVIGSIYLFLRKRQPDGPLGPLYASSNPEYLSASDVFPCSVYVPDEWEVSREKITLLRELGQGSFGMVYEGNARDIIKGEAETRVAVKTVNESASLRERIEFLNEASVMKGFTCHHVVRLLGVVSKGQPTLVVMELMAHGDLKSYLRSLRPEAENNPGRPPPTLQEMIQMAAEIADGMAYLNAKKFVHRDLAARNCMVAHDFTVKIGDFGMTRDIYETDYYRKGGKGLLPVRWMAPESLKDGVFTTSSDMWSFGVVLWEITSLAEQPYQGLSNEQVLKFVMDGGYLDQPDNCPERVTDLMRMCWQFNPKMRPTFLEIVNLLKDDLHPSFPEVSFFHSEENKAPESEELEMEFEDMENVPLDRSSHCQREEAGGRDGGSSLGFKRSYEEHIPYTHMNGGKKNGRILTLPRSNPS

[10] = target: T1, panel of more than 300 wild-type and mutant kinases (313 kinase panel) (Homo sapiens, UniProt P42681)
T1 sequence (P42681 1-527): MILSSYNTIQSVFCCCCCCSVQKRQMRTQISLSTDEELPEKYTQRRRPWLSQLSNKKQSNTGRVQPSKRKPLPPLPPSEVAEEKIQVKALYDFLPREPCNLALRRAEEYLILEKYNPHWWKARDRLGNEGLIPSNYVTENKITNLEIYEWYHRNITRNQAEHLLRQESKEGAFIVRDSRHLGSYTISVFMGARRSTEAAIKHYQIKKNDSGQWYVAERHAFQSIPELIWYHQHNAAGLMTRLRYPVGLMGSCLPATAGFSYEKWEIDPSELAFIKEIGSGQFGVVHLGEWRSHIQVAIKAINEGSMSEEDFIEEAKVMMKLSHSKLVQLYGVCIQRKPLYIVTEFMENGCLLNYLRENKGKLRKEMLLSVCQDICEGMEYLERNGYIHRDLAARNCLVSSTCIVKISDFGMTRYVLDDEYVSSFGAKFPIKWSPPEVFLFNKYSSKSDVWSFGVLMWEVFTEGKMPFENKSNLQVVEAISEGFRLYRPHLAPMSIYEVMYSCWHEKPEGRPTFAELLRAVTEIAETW

[11] = target: panel of more than 300 wild-type and mutant kinases (313 kinase panel) (Homo sapiens, UniProt P07947)
panel of more than 300 wild-type and mutant kinases (313 kinase panel) (Homo sapiens, UniProt P07947), sequence (P07947 whole entry, change not shown): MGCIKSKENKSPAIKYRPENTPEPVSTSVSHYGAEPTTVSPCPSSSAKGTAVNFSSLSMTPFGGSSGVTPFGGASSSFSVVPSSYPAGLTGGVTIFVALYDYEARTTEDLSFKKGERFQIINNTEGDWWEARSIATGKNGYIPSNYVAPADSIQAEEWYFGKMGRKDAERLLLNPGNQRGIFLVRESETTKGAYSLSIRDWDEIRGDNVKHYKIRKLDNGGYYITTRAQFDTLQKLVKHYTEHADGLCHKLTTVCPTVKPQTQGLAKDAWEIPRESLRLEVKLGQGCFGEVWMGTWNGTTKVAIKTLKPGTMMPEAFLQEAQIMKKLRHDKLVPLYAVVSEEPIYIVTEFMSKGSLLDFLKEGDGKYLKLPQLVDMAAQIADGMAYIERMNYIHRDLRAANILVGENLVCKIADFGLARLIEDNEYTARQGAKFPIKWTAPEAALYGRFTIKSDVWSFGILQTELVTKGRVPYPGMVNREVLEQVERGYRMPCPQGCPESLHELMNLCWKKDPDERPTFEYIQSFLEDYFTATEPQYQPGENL

[12] = target: T2, panel of more than 300 wild-type and mutant kinases (313 kinase panel) (Homo sapiens, UniProt Q99759)
T2 sequence (Q99759 1-626): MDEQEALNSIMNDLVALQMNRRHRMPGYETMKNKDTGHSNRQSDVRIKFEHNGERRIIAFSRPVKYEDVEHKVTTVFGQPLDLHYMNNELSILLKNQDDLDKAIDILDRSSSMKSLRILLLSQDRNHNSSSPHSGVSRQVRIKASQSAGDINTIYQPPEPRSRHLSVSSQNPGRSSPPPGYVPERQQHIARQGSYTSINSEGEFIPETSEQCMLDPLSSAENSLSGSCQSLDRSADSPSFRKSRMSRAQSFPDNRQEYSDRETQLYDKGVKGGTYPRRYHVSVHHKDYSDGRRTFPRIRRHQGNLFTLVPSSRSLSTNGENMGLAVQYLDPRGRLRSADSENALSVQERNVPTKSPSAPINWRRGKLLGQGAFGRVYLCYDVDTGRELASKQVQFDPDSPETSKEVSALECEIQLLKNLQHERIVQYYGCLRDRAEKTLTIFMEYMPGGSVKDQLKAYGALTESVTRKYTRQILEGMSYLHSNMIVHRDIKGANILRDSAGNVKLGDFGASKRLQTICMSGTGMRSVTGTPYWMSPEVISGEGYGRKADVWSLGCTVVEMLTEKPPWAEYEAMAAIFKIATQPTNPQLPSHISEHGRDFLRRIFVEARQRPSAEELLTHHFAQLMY

[13] = target: panel of more than 300 wild-type and mutant kinases (313 kinase panel) (Homo sapiens, UniProt Q9H2X6)
[14] = target: panel of more than 300 wild-type and mutant kinases (313 kinase panel) (Homo sapiens, UniProt Q02750); conditions: kinase MAP2K1; compound at 1 μM
[15] = kinase MAP3K3, compound at 1 μM

panel of more than 300 wild-type and mutant kinases (313 kinase panel) (Homo sapiens, UniProt Q00535), sequence (Q00535 whole entry, change not shown): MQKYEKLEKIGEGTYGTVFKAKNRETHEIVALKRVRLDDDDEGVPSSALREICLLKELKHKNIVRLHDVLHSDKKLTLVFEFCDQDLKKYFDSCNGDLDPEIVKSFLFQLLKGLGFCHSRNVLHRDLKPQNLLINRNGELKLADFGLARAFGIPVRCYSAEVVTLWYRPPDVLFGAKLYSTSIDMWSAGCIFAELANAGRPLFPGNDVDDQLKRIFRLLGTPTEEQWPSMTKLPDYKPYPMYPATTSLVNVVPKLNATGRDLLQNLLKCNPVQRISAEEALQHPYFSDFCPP

SMILES | %-inhibition, CDK5/p25 [1] [%] | %-inhibition of RSK2 [2] [%] | %-inhibition of WEE1 ([3]; kinase WEE1, compound at 1 μM) [%] | %-inhibition of p70S6K ([4]; kinase p70S6K, 1 μM) [%] | %-inhibition of FAK [5] [%] | %-inhibition of SRPK1 [7] [%] | %-inhibition of INSR [9] [%] | %-inhibition of YES ([11]; kinase YES, compound at 1 μM) [%] | %-inhibition of HIPK2 ([13]; kinase HIPK2, compound at 1 μM) [%] | %-inhibition of MAP2K1 [14] [%] | %-inhibition of PAK5 ([6]; kinase PAK5, 1 μM) [%] | %-inhibition, CaMK2γ ([8]; kinase CaMK2γ, 1 μM compound) [%] | %-inhibition of TXK ([10]; kinase TXK, compound at 1 μM) [%] | %-inhibition of MAP3K3 [12, 15] [%] | also measured
CS(=O)(=O)CCNCc1ccc(-c2ccc3ncnc(Nc4ccc(OCc5cccc(F)c5)c(Cl)c4)c3c2)o1 [lapatinib] | 0.201 | -1 | 8 | 8 | 10 | 0.333 | -1.26 | 26 | 1.46 | 21 |  |  |  |  | %-inhibition of PAK5 ([6]; 1 µM): -0.566%; %-inhibition, CaMK2γ ([8]; 1 µM): 1.73%; %-inhibition of TXK ([10]; 1 µM): 0.699%; %-inhibition of MAP3K3 ([12]; 1 µM): 4.75%
Cc1cn(-c2cc(NC(=O)c3ccc(C)c(Nc4nccc(-c5cccnc5)n4)c3)cc(C(F)(F)F)c2)cn1 [nilotinib] | 0.83 | 13 |  | 2 | 3.25 | 3 | -8 | 44 | 16 | -8 | 3.39 | -2.76 | 16 |  | %-inhibition of WEE1 ([3]; 1 µM): 3.74%; %-inhibition of MAP3K3 ([12]; 1 µM): -21%
Cc1ccc(Nc2nccc(N(C)c3ccc4c(C)n(C)nc4c3)n2)cc1S(N)(=O)=O [pazopanib] | 9 | 9 | 1 | 17 | 46 | 8 | 22 | 68 | 5.51 | 2.11 | 2 | 0.188 | 52 | 77 | 
CNC(=O)c1cc(Oc2ccc(NC(=O)Nc3ccc(Cl)c(C(F)(F)F)c3)c(F)c2)ccn1 [regorafenib] | -19 | 6.66 | 4.42 | 92 | -1.14 | 27 | -2.79 | 62 | 78 | -8.57 | -8 | -13 | -2.18 | 9 | 
N#CC[C@H](C1CCCC1)n1cc(-c2ncnc3[nH]ccc23)cn1 [ruxolitinib] | -16 | 9 | -1.32 |  | -1 | 2.4 | 0.837 |  |  | 11 | 14 | 56 | 10 | 36 | %-inhibition of p70S6K ([4]; 1 µM): 20%; %-inhibition of YES ([11]; 1 µM): 24%; %-inhibition of HIPK2 ([13]; 1 µM): 9%
CO[C@H]1C[C@@H]2CC[C@@H](C)[C@@](O)(O2)C(=O)C(=O)N2CCCC[C@H]2C(=O)O[C@H]([C@H](C)C[C@@H]2CC[C@@H](OC(=O)C(C)(CO)CO)[C@H](OC)C2)CC(=O)[C@H](C)/C=C(\C)[C@@H](O)[C@@H](OC)C(=O)[C@H](C)C[C@H](C)/C=C/C=C/C=C/1C [temsirolimus] | -22 | -2.74 | 4.25 | -13 | -5.48 | 6 | -4 | -7 | 0.538 | 0.452 | -6 | -14 | -7 | 10 | 
CC(=O)Nc1cccc(-n2c(=O)n(C3CC3)c(=O)c3c(Nc4ccc(I)cc4F)n(C)c(=O)c(C)c32)c1 [trametinib] | 19 | -1.76 | 9 | -1.39 | -2.41 | -0.0691 | -30 | -1.63 | 0.155 | 99 | -2.62 | 7 | -4.66 | -6.63 | 
CCCS(=O)(=O)Nc1ccc(F)c(C(=O)c2c[nH]c3ncc(-c4ccc(Cl)cc4)cc23)c1F [vemurafenib] | 5 | -2.31 | -1.64 | 9 | -3.55 | 2 | 17 | 74 | -5 | 18 | -1.23 | -10 | 5 | 8 | 
